Active and inactive are the calls of the source. The rule behind the calls is not given here.
Assays:
Acetylcholinesterase = molecular target: T1, Acetylcholinesterase (Mus musculus, UniProt P21836); experiment: Inhibition of mouse brain homogenate AChE using acetylthiocholine iodide as substrate measured after 15 mins in presence of BChE inhibitor methopropazine hydrochloride by DTNB reagent based colorimetric method; type: tissue-based
T1 sequence (P21836 whole entry): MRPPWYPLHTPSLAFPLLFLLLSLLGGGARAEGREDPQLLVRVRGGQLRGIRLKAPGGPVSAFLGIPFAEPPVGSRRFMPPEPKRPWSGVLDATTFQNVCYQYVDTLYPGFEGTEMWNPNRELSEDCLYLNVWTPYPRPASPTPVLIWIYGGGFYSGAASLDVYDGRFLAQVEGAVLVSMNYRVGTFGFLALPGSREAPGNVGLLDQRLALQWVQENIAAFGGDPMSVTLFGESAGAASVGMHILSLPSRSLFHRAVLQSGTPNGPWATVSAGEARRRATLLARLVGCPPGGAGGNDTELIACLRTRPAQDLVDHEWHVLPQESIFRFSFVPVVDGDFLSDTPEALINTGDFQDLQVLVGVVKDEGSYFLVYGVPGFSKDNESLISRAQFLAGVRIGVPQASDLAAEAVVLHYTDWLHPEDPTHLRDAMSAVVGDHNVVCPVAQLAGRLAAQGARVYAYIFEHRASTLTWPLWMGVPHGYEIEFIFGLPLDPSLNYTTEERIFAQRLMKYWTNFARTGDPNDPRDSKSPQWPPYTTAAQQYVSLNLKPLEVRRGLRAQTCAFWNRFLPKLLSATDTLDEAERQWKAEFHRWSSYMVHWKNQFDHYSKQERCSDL

CCRF-CEM = experiment: Cytotoxicity against human CCRF-CEM cells by MTT assay; type: functional, cell-based
BGC-823 = experiment: Cytotoxicity against human BGC823 cells by MTT assay; type: functional, cell-based
Arabidopsis thaliana [1] = experiment: Inhibition of seed germination in Arabidopsis thaliana Columbia-0 assessed as reduction in primary root growth up to 100 uM incubated for 10 days under 16 hrs-light/8 hrs-dark condition by microscopic analysis; type: functional, organism-based
Arabidopsis thaliana [2] = experiment: Inhibition of seed germination in Arabidopsis thaliana Columbia-0 assessed as reduction in lateral root growth up to 100 uM incubated for 10 days under 16 hrs-light/8 hrs-dark condition by microscopic analysis; type: functional, organism-based
AGS = experiment: Cytotoxicity against human AGS cells by MTT assay; type: functional, cell-based
HCT-116 = experiment: Cytotoxicity against human HCT116 cells by MTT assay; type: functional, cell-based
K562 = experiment: Cytotoxicity against human K562 cells by MTT assay; type: functional, cell-based
MDA-MB-231 = experiment: Cytotoxicity against human MDA-MB-231 cells by MTT assay; type: functional, cell-based
Arabidopsis thaliana [3] = experiment: Inhibition of seed germination in Arabidopsis thaliana Columbia-0 assessed as reduction in primary root growth at 50 uM incubated for 10 days under 16 hrs-light/8 hrs-dark condition by microscopic analysis; type: functional, organism-based
Arabidopsis thaliana [4] = experiment: Inhibition of seed germination in Arabidopsis thaliana Columbia-0 assessed as reduction in lateral root growth at 50 to 100 uM incubated for 10 days under 16 hrs-light/8 hrs-dark condition by microscopic analysis; type: functional, organism-based
Arabidopsis thaliana [5] = experiment: Inhibition of seed germination in Arabidopsis thaliana Columbia-0 assessed as reduction in primary root growth at 100 uM incubated for 10 days under 16 hrs-light/8 hrs-dark condition by microscopic analysis; type: functional, organism-based

Row | SMILES | IC50 (Acetylcholinesterase) [µM] | IC50 (CCRF-CEM) [µM] | IC50 (BGC-823) [µM] | inhibition (Arabidopsis thaliana [1]) | inhibition (Arabidopsis thaliana [2]) | IC50 (AGS) [µM] | IC50 (HCT-116) [µM] | IC50 (K562) [µM] | IC50 (MDA-MB-231) [µM] | inhibition (Arabidopsis thaliana [3]) | inhibition (Arabidopsis thaliana [4]) | inhibition (Arabidopsis thaliana [5])
1 | CC[C@H](O)c1oc(=O)cc(OC)c1C | > 200 | > 50 | > 50 | inactive | inactive | > 50 | > 50 | > 50 | > 50 | – | – | –
2 | Nc1cc(F)ccc1NC(=O)c1ccc(CNC(=O)/C=C/c2cccnc2)cc1 [TUCIDINOSTAT] | – | 0.63 | – | – | – | – | – | 1.34 | – | – | – | –
3 | CCCC1=C/C(=C/[C@H](O)[C@@H](C)O)OC1=O | > 200 | > 50 | > 50 | – | – | > 50 | > 50 | > 50 | > 50 | Active | Active | inactive
4 | CC(C)c1ccc(CO)c2ccc(C(=O)O)cc12 | > 200 | 13.8 | – | – | – | – | – | 12.9 | – | Active | Active | inactive
5 | CCCC1=C/C(=C\[C@H](O)[C@@H](C)O)OC1=O | > 200 | > 50 | > 50 | inactive | inactive | > 50 | > 50 | > 50 | > 50 | – | – | –

Reference: ChEMBL document CHEMBL4390705, “A new lateral root growth inhibitor from the sponge-derived fungus Aspergillus sp. LS45” (Bioorg Med Chem Lett, 2019)
